Measurements reported in patent publication US5436229A, “Bisulfite adducts of arginine aldehydes” (Eli Lilly and Company, priority 1994, dated 1995).
Non-standard residues stand in square brackets, D forms with d. Residues, ends and D or L forms follow the SMILES beside them. ξ: configuration not given here. dPip = O=C(O)[C@H]1CCCCN1; dThz = O=C(O)[C@H]1CSCN1; ξAze = O=C(O)C1CCN1

What was measured:
[1] = Index of Bioavailability (plasma TT AUC, oral vs i.v.); assay type: in vivo; conditions: rats, oral vs i.v. bolus
Description: Assays are done in duplicate and averaged.
Each sample population represents alternating sequential time points.

human thrombin = human thrombin (Homo sapiens, UniProt P00734); test: Thrombin amidase inhibition (Kass), chromogenic substrate; assay type: biochemical
Summary of the method: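 Purified human thrombin (8 NIH units/ml solution) mixed with compound in 50% aqueous methanol and 0.03M Tris, 0.15M NaCl, pH 7.4; chromogenic substrate (0.25 mg/ml solution) added, p-nitroaniline release followed at 405 nm. Free thrombin read from a standard curve; Kass (L/mol) is the mean over a range of compound concentrations.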

Bovine trypsin = molecular target: T1, Bovine trypsin (Bos taurus, UniProt P00760); test: Serine protease inhibition (Kass), trypsin; assay type: biochemical
T1 construct: Bovine trypsin is purchased from Worthington Biochemicals; purchased Worthington Biochemicals, Freehold, N.J
T1 sequence (P00760 24-246): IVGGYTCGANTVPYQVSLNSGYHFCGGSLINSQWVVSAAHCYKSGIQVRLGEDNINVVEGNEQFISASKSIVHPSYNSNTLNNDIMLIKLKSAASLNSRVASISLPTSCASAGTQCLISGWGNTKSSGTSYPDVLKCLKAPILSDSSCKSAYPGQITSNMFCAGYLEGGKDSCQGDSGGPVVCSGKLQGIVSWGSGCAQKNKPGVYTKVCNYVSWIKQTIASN
Summary of the method: (§1)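 Chromogenic p-nitroanilide substrate assays run as for human thrombin; trypsin with N-Benzoyl-Phe-Val-Arg-p-nitroanilide, human factor Xa with N-Benzoyl-Ile-Glu-Gly-Arg-p-nitroanilide. Values are association constants (Kass).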

[2] = molecular target: T2, tissue plasminogen activator (t-PA) (Homo sapiens, UniProt P00750); test: Serine protease inhibition (Kass), t-PA; assay type: biochemical
T2 construct: purchased American Diagnostica, Greenwich, Conn

human plasma [3] = test: Human plasma anticoagulation, thrombin time (TT); assay type: biochemical
Summary of the method: (§2)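 Compounds added across a wide concentration range to human plasma; APTT, PT and TT clotting times measured on a coagulation instrument, bovine thrombin used for plasma assays. Concentration doubling clotting time estimated by linear extrapolation.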

Human plasmin = molecular target: T3, Human plasmin (Homo sapiens, UniProt P00747); test: Serine protease inhibition (Kass), plasmin; assay type: biochemical
T3 construct: Human plasmin is purchased from Boehringer Mannheim; purchased Boehringer Mannheim, Indianapolis, Ind
Summary of the method: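 Chromogenic enzyme assays run as for human thrombin, giving association constants (Kass). Human plasmin used with H-D-Val-Leu-Lys-p-nitroanilide; t-PA (single-chain nt-PA or modified mt-PA6) with H-D-Ile-Pro-Arg-p-nitroanilide.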

human plasma [4] = test: Human plasma anticoagulation, prothrombin time (PT); assay type: biochemical
Summary of the method: as §2

human plasma [5] = test: Human plasma anticoagulation, activated partial thromboplastin time (APTT); assay type: biochemical
Summary of the method: as §2

factor Xa = molecular target: T4, factor Xa (Homo sapiens, UniProt P00742); test: Serine protease inhibition (Kass), factor Xa; assay type: biochemical
T4 construct: Human factors X, Xa, IXa, XIa, and XIIa are purchased from Enzyme Research Laboratories; purchased Enzyme Research Laboratories, South Bend, Ind
Summary of the method: as §1

T3 sequence (P00747 581-810 limits assumed): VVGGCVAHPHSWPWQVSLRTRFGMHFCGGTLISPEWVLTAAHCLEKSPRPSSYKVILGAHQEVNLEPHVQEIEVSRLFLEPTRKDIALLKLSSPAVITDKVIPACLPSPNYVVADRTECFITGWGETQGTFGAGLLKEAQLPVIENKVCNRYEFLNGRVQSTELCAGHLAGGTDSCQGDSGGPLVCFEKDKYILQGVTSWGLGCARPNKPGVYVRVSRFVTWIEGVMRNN
T3 sequence (P00747 97-580 partner limits assumed): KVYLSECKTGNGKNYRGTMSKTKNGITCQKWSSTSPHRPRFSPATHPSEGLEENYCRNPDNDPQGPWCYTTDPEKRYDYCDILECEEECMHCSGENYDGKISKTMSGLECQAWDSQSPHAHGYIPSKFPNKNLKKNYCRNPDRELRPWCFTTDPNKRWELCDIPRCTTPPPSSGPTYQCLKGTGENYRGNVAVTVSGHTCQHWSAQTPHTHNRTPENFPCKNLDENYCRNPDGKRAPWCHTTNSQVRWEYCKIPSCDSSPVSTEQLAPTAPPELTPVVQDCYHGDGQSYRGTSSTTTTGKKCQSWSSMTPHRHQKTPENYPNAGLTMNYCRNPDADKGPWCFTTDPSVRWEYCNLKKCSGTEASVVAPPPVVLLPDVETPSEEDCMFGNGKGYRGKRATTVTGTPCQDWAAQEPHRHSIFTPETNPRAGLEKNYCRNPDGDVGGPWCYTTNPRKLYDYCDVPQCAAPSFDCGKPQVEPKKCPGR
T4 sequence (P00742 235-488 limits assumed): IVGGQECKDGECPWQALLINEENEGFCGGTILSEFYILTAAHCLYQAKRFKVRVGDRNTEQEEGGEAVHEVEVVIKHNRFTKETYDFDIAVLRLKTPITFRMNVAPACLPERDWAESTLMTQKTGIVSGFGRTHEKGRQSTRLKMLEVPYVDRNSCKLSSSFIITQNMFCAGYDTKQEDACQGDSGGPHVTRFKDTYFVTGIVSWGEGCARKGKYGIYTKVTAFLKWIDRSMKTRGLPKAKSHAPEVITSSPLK
T4 sequence (P00742 41-179 partner limits assumed): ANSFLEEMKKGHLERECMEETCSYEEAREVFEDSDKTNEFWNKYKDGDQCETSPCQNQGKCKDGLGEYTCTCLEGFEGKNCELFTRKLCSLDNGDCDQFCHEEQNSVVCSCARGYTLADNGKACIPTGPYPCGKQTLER
T2 sequence (P00750 36-562): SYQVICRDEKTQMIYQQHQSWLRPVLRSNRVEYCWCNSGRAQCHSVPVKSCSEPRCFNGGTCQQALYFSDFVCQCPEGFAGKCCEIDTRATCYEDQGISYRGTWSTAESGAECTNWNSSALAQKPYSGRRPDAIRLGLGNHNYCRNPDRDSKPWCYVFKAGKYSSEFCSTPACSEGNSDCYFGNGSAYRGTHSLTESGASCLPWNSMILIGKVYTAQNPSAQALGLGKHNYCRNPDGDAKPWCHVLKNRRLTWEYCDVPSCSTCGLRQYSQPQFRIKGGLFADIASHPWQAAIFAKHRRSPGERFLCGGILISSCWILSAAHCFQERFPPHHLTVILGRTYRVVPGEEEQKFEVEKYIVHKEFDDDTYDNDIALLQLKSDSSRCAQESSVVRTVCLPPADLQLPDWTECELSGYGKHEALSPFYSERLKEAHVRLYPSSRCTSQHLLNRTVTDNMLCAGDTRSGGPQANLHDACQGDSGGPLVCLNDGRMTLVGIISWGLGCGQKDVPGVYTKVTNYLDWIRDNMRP

Kass Trypsin (Bovine trypsin) [L/mol × 10^6] | Kass t-PA [2] [L/mol × 10^6] | Kass Plasmin (Human plasmin) [L/mol × 10^6] | Kass Xa (factor Xa) [L/mol × 10^6] | Molecule | Percent Relative Activity (Index of Bioavailability) [1] [%] | Kass Human Thrombin (human thrombin) [L/mol × 10^6] | 2 × Clotting time TT (human plasma [3]) [ng/mL] | 2 × Clotting time PT (human plasma [4]) | 2 × Clotting time APTT (human plasma [5])
– | – | – | – | Cl.Cl.N=C(N)NCCC[C@@H](C=O)NC(=O)[C@@H]1CCCN1C(=O)C1NCCCC2CCCCC21 (mixture of isomers) [Example 8, DL-cis-3-aza-bicyclo[5.4.0]undecanyl-2-carbonyl-L-prolinyl-L-arginine aldehyde dihydrochloride] | 43 | 595 | – | – | –
– | – | – | – | Cl.Cl.Cl.N=C(N)NCCC[C@@H](C=O)NC(=O)[C@@H]1CCCN1C(=O)[C@H]1C[C@@H](Oc2ccccc2)CN1.O (relative stereo) [Example 12, D-Cis-(4-phenoxy)Prolinyl-L-Prolinyl-L-Arginine Aldehyde Trihydrochloride Monohydrate] | 16 | 25 | – | – | –
– | – | – | – | Cl.Cl.N=C(N)NCCC[C@@H](C=O)NC(=O)C1CCN1C(=O)[C@H]1CCCCN1 (stereo partly drawn) [Example 3, D-Homoprolinyl-L-Azetidinyl-L-Arginine Aldehyde Dihydrochloride] (H-[dPip]-[ξAze]-Arg-aldehyde) | 32 | 45 | – | – | –
– | – | – | – | Cl.Cl.N=C(N)NCCC[C@@H](C=O)NC(=O)[C@@H]1CCCN1C(=O)[C@H]1CSCN1 [Example 4, D-Thiazolidinyl-4-Carbonyl-L-Prolinyl-L-Arginine Aldehyde Dihydrochloride] (H-[dThz]-Pro-Arg-aldehyde) | 16 | 5 | – | – | –
– | – | – | – | Cl.Cl.N=C(N)NCCC[C@@H](C=O)NC(=O)[C@@H]1CCCN1C(=O)C1CNCCN1 (stereo partly drawn) [Example 9, D,L-Piperazin-2-yl-L-Prolinyl-L-Arginine Aldehyde Dihydrochloride] | 19 | 121 | – | – | –
– | – | – | – | Cl.Cl.N=C(N)NCCC[C@@H](C=O)NC(=O)[C@@H]1CCCN1C(=O)C1NCCS1 (stereo partly drawn) [Example 10, D,L-Thiazolidinyl-2-carbonyl-L-prolinyl-L-arginine aldehyde dihydrochloride] | 5 | 27 | – | – | –
– | – | – | – | CNC(CC(=O)N1CCC[C@H]1C(=O)N[C@H](C=O)CCCNC(=N)N)c1ccccc1.Cl.Cl.O.O (stereo partly drawn) [Example 15, N-methyl-3-amino-3-phenylpropionyl-L-Prolinyl-L-Arginine Aldehyde Dihydrochloride Dihydrate] | 28 | 70 | – | – | –
– | – | – | – | CNC(CC(=O)N1CCC[C@H]1C(=O)N[C@H](C=O)CCCNC(=N)N)C1CCCCC1.CNC(CC(=O)N1CCC[C@H]1C(=O)N[C@H](C=O)CCCNC(=N)N)C1CCCCC1.Cl.Cl.Cl.Cl.O (stereo partly drawn) [Example 16, N-methyl-3-amino-3-cyclohexyl propionyl-L-Pro-L-Arg aldehyde dihydrochloride hemihydrate] | 19 | 85 | – | – | –
– | – | – | – | CNCC(Cc1ccccc1)C(=O)N1CCC[C@H]1C(=O)N[C@H](C=O)CCCNC(=N)N.Cl.Cl.O (stereo partly drawn) [Example 17, N-Methyl-3-amino-2-benzylpropionyl-L-Pro-L-Arg Aldehyde Dihydrochloride Monohydrate] | 8 | 12 | – | – | –
– | – | – | – | Cl.Cl.Cl.N=C(N)NCCC[C@@H](C=O)NC(=O)[C@@H]1CCCN1C(=O)C1CCCCC1N.O (stereo partly drawn) [Example 22, 2-aminocyclohexylcarbonyl-L-Pro-L-Arginine Aldehyde Trihydrochloride Monohydrate] | 15 | 39 | – | – | –
14 | 0.11 | 0.28 | 0.066 | CC(=O)N[C@H](Cc1ccccc1)C(=O)N1CCC[C@H]1C(=O)N[C@H](C=O)CCCNC(=N)N.Cl [Example 67, N-(acetyl)-D-phenylalanyl-L-Prolinyl-L-Arginine Aldehyde Hydrochloride] | – | 3.4 | 140 | 4,100 ng/mL | 2,700 ng/mL
57 | 0.30 | 3.8 | 0.29 | COCC(=O)N[C@H](Cc1ccccc1)C(=O)N1CCC[C@H]1C(=O)N[C@H](C=O)CCCNC(=N)N.Cl [Example 68, N-(methoxyacetyl)-D-phenylalanyl-L-Prolinyl-L-Arginine Aldehyde Hydrochloride] | – | 33 | 38 | 1,200 ng/mL | 440 ng/mL
15 | 0.17 | 0.31 | 0.033 | Cl.N=C(N)NCCC[C@@H](C=O)NC(=O)[C@@H]1CCCN1C(=O)[C@@H](Cc1ccccc1)NC(=O)C(F)(F)F [Example 69, N-(trifluoroacetyl)-D-phenylalanyl-L-Prolinyl-L-Arginine Aldehyde Hydrochloride] | – | 26 | 59 | 1,800 ng/mL | 1,300 ng/mL
14 | 0.37 | 0.54 | 0.10 | Cl.N=C(N)NCCC[C@@H](C=O)NC(=O)[C@@H]1CCCN1C(=O)[C@@H](Cc1ccccc1)NC(=O)Cc1ccccc1 [Example 70, N-(phenylacetyl)-D-phenylalanyl-L-Prolinyl-L-Arginine Aldehyde Hydrochloride] | – | 29 | 64 | 2,000 ng/mL | 1,100 ng/mL
15 | 0.62 | 0.86 | 0.32 | CCCN(CCC)S(=O)(=O)c1ccc(C(=O)N[C@H](Cc2ccccc2)C(=O)N2CCC[C@H]2C(=O)N[C@H](C=O)CCCNC(=N)N)cc1.Cl [Example 73, N-(4-di-n-propylaminosulfonylbenzoyl)-D-phenylalanyl-L-Prolinyl-L-Arginine Aldehyde Hydrochloride] | – | 43 | 150 | 4,800 ng/mL | 3,500 ng/mL
– | – | – | – | D-Prolinyl-L-Prolinyl-L-Arginine Aldehyde Dihydrochloride [Example 2] | 36 | 12 | – | – | –

Molecule | Kass Trypsin (Bovine trypsin) [L/mol × 10^6] | Kass t-PA [2] [L/mol × 10^6] | Kass Plasmin (Human plasmin) [L/mol × 10^6] | Kass Xa (factor Xa) [L/mol × 10^6] | Percent Relative Activity (Index of Bioavailability) [1] [%] | Kass Human Thrombin (human thrombin) [L/mol × 10^6] | 2 × Clotting time TT (human plasma [3]) [ng/mL] | 2 × Clotting time PT (human plasma [4]) | 2 × Clotting time APTT (human plasma [5])
Cl.N=C(N)NCCC[C@@H](C=O)NC(=O)[C@@H]1CCCN1C(=O)[C@@H](Cc1ccccc1)NC(=O)C1CCCCC1 [Example 71, N-(cylohexoyl)-D-phenylalanyl-L-Prolinyl-L-Arginine Aldehyde Hydrochloride] | 5.9 | 0.26 | 0.24 | 0.064 | – | 20 | 63 | 1,800 ng/mL | 1,300 ng/mL
CCNC(=O)N[C@H](Cc1ccccc1)C(=O)N1CCC[C@H]1C(=O)N[C@H](C=O)CCCNC(=N)N.Cl [Example 76, N-(ethylaminocarbonyl)-D-phenylalanyl-L-Prolinyl-L-Arginine Aldehyde Hydrochloride] | 60 | 0.54 | 2.0 | 0.21 | – | 25 | 63 | 1,700 ng/mL | 1,100 ng/mL
CCOC(=O)N[C@H](CC1CCCCC1)C(=O)N1CCC[C@H]1C(=O)N[C@H](C=O)CCCNC(=N)N.Cl [Example 78, N-(ethoxycarbonyl)-D-cyclohexylalanyl-L-prolinyl-L-Arginine Aldehyde Hydrochloride] | 140 | 0.75 | 26 | 8.1 | – | 360 | 48 | 890 ng/mL | 410 ng/mL
